Data set [1] can be described thus: Oral bioavailability in NMRI mouse. Type of data set: ADME, organism-based. The conditions noted are these: in vivo.
The species named for a further data set is Homo sapiens. Kind of data set: Selectivity index, ratio of DC50 for VHL/SMARCA2 in human RKO cells to DC50 for VHL/SMARCA4 in human RKO cells. Type of data set: cell-based.
Data set [2] deals with T1, von Hippel-Lindau disease tumor suppressor/SWI/SNF-related matrix-associated actin-dependent regulator of chromatin subfamily A member 2 (Homo sapiens, UniProt P51531+P40337). Kind of data set: Protac activity at VHL/SMARCA2 in human RKO cells assessed as degradation of SMARCA2. Format: cell-based.
Target sequence in this assay (P51531 whole entry): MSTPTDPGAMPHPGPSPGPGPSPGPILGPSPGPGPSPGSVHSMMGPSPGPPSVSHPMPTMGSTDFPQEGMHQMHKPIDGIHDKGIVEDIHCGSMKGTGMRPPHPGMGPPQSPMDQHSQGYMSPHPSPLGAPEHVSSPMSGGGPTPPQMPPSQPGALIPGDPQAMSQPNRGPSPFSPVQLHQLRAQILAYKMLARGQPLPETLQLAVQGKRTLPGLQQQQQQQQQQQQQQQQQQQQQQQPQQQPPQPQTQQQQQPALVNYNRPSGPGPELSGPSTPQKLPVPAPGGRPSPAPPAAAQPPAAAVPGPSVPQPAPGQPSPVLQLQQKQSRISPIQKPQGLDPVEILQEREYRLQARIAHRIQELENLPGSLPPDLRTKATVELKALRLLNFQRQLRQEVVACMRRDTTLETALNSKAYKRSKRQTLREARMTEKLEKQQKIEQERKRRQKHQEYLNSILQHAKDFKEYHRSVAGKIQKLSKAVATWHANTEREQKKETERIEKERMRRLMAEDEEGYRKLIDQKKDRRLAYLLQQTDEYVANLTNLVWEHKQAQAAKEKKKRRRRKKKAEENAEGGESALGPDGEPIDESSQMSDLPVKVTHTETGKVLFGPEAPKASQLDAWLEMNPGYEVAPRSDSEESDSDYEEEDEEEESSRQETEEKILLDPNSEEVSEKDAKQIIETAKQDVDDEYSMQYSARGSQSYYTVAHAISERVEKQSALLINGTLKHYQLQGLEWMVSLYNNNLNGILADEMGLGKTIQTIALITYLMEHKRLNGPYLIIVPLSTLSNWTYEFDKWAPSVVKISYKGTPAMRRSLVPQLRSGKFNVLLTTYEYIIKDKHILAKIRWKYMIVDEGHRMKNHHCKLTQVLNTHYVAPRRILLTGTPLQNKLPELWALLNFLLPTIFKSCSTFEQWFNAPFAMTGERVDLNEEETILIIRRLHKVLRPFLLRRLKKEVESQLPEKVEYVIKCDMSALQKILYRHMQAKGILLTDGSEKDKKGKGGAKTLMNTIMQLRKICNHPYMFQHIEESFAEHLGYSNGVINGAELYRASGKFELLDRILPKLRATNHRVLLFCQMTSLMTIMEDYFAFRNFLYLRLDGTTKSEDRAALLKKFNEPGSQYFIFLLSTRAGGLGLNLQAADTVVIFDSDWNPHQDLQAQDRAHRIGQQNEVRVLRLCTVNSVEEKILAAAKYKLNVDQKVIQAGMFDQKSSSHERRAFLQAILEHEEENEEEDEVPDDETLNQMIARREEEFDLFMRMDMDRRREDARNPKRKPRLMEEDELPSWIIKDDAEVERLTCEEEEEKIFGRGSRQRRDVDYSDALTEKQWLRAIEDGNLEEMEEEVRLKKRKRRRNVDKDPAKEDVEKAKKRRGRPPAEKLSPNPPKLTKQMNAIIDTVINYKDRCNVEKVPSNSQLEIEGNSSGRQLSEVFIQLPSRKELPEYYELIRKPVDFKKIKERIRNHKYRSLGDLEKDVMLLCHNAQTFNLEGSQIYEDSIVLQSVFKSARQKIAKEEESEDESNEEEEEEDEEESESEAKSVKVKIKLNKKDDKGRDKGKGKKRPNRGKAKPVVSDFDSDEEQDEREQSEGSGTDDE
Target sequence in this assay (P40337 whole entry): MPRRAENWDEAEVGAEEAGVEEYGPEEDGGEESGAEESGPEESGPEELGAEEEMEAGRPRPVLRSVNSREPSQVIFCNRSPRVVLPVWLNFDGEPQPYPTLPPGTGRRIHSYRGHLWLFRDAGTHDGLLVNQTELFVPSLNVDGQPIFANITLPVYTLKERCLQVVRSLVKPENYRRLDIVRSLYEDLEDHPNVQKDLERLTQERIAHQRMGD
The target of data set [3] is von Hippel-Lindau disease tumor suppressor/SWI/SNF-related matrix-associated actin-dependent regulator of chromatin subfamily A member 4 (Homo sapiens, UniProt P51532+P40337). Kind of data set: Protac activity at VHL/SMARCA4 in human RKO cells assessed as degradation of SMARCA4. Type of data set: cell-based.
Sequence of von Hippel-Lindau disease tumor suppressor/SWI/SNF-related matrix-associated actin-dependent regulator of chromatin subfamily A member 4 (P51532 whole entry): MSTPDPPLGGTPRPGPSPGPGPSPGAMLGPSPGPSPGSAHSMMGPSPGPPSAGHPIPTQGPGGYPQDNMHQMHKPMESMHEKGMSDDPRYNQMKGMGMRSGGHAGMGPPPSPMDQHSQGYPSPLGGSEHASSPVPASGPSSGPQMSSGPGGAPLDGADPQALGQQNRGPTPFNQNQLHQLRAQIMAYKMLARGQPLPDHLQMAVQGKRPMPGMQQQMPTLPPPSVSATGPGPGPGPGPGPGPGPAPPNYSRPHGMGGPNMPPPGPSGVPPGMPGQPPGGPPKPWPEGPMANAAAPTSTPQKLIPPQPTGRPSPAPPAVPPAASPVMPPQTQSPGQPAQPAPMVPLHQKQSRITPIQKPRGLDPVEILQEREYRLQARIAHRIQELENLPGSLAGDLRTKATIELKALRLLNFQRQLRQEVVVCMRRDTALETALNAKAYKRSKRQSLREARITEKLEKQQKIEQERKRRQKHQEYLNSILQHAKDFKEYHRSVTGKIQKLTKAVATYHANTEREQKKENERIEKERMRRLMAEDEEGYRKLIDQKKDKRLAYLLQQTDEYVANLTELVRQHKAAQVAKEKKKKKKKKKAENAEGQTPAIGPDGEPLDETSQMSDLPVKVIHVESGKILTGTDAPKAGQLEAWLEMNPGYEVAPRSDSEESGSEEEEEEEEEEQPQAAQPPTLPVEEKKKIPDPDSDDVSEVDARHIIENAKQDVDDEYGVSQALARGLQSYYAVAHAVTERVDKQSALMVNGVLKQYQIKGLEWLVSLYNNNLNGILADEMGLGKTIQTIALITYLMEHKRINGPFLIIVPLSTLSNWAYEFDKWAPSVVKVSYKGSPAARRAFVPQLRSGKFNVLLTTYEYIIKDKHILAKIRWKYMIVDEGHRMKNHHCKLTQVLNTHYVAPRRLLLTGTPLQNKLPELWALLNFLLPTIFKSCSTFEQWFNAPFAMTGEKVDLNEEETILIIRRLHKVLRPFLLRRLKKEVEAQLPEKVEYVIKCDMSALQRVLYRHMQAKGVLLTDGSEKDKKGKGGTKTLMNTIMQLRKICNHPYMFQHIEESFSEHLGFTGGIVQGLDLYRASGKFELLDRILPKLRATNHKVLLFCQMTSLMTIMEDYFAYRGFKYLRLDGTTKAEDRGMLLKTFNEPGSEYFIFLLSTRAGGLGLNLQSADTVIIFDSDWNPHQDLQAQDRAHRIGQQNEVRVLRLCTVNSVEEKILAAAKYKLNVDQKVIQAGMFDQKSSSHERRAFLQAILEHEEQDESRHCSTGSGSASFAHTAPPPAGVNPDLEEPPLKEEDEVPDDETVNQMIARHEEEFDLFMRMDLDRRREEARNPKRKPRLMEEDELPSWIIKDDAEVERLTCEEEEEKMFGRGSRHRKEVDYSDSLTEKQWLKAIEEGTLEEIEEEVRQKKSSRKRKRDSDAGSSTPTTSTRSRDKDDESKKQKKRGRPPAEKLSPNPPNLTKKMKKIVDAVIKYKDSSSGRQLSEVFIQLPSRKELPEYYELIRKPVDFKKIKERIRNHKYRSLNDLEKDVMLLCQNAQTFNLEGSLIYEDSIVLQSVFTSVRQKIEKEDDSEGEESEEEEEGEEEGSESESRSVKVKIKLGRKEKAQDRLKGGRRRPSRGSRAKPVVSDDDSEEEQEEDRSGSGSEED
Sequence of von Hippel-Lindau disease tumor suppressor/SWI/SNF-related matrix-associated actin-dependent regulator of chromatin subfamily A member 4 (P40337 whole entry): as the sequence (P40337 whole entry) above
The target in data set [4] is SWI/SNF-related matrix-associated actin-dependent regulator of chromatin subfamily A member 2 (Homo sapiens, UniProt P51531). Kind of data set: Inhibition of SMARCA2 (unknown origin) assessed as dissociation constant.
Sequence of SWI/SNF-related matrix-associated actin-dependent regulator of chromatin subfamily A member 2 (P51531 whole entry): as the sequence (P51531 whole entry) above
The target of data set [5] is T1, von Hippel-Lindau disease tumor suppressor/SWI/SNF-related matrix-associated actin-dependent regulator of chromatin subfamily A member 2. Kind of data set: Protac activity at VHL/SMARCA2 (unknown origin) assessed as degradation of SMARCA2 relative to control. Format: protein assay.
Target sequence in this assay (P40337 whole entry, looked up): as the sequence (P40337 whole entry) above
Target sequence in this assay (P51531 whole entry, looked up): as the sequence (P51531 whole entry) above
For data set [6] the target is unchanged. Nature of the data set: Protac activity at VHL/SMARCA2 (unknown origin) assessed as degradation of SMARCA2. Format: protein assay.
Target sequence in this assay (P51531 whole entry): as above
Target sequence in this assay (P40337 whole entry): as the sequence (P40337 whole entry) above

Some results are limits rather than exact numbers.

As usually defined, the bioavailability is the share of a dose that reaches the circulation, judged against a reference dose that is usually intravenous. High values mean much systemic uptake, low ones little systemic uptake. The DC50 is the concentration giving 50% degradation. In data set [1], `Cc1ncsc1-c1ccc(CNC(=O)[C@@H]2C[C@@H](O)CN2C(=O)[C@@H](NC(=O)C2(F)CC2)C(C)(C)C)c(CC[C@H](C)CCN2CCC(c3ccc4c(c3)n(C3CCCC3)c3nc(=O)c5c(Br)cccc5n43)CC2)c1` showed a bioavailability of 22%. Moreover, in the data set filed under Homo sapiens, the Selectivity Index was greater than 30. Further, the DC50 turned out to be 1 nM in data set [2] and 32 nM in data set [3].
The term Kd denotes the concentration at which binding is half-saturated. For the compound `O=c1nc2n(C3CCCC3)c3cc(C4CCNCC4)ccc3n2c2cccc(Br)c12`, the Kd in data set [4] came to 46 nM.
For orientation: Emax means the size of the effect at its maximum, as opposed to the concentration needed. For `Cc1ncsc1-c1ccc(CNC(=O)[C@@H]2C[C@@H](O)CN2C(=O)[C@@H](NC(=O)C2(F)CC2)C(C)(C)C)c(OCCCN2CCC(c3ccc4c(c3)n(C3CCCC3)c3nc(=O)c5c(Br)cccc5n43)CC2)c1`, the Emax in data set [5] amounted to 46%. Moreover, the half-maximal degradation concentration (DC50) in data set [6] stood at 78 nM.

The values are drawn from ChEMBL document CHEMBL5360624, “Exploitation of Proximity-Mediated Effects in Drug Discovery: An Update of Recent Research Highlights in Perturbing Pathogenic Proteins and Correlated Issues” (J Med Chem, 2023).
